One series concerns AGT protein. Nature of the series: In vivo PD experiment of non-human primate cynomolgus monkey (plasma AGT protein). Particulars: for plasma AGT protein level after administration/before administration, Average: group average; for plasma AGT protein level after administration/before administration: individual animal. The source says:
The downregulation degree of cynomolgus monkey plasma AGT by the sample to be tested was observed through a non-human primate cynomolgus monkey model highly homologous to a human in AGT gene.
2. Experimental materials: cynomolgus monkeys, 1×PBS (phosphate buffer solution), AD-85481 (US2021095290), and a conjugate of the present invention.
10 cynomolgus monkeys with the weight of 2-3 kg were purchased, and the animals were adapted to quarantine for one week after arriving at an animal room.
On Day −6, cynomolgus monkeys were divided into groups at random according to weight data, with 2 cynomolgus monkeys in each group, the AGT protein concentrations in plasmas of all the cynomolgus monkeys were detected after grouping as an experimental data baseline for each group.
Administration was performed on Day 1. Group 1 was dosed with 1×PBS; group 2 was subcutaneously injected with AD-85481 at the dose of 0.3 mpk; group 3 was subcutaneously injected with AD-85481 at the dose of 3 mpk; group 4 was subcutaneously injected with the conjugate 2 of the present invention at the dose of 0.3 mpk; group 5 was subcutaneously injected with the conjugate 2 of the present invention at the dose of 3 mpk. Blood was collected on Day 1, 2, 4, 8, 15, 22, 29, 32, 35, 43, 57, 71 after administration to detect the AGT protein concentration in plasma of each cynomolgus monkey. By comparing the AGT protein concentration in plasma after administration to the AGT protein concentration on Day −6, the relative downregulation proportion of the AGT proteins in each group of animals was obtained.
4. In the table, the data represent AGT gene expression level after administration/AGT gene expression level before administration.

Another series relates to AGT mRNA. Nature of the series: Free uptake experiment of PHH cells (AGT mRNA by qPCR). The class given is cell-based, human. Particulars: 48 h. On the procedure:
A sample to be tested was incubated with primary human hepatocytes. The downregulation degree of AGT mRNA by the sample to be tested was evaluated.
Primary human hepatocytes (PHH), RNeasy® 96 Kit (12) (QIAGEN-74182), FastKing RT Kit (With gDNase) (Tiangen-KR116-02), TaqMan Gene Expression Assay (GAPDH, Thermo, Assay ID-Hs02786624_g1), TaqMan Gene Expression Assay (AGT, Thermo, Assay ID-Hs01586213_m1).
A conjugate of the present invention was diluted with a PBS solution until the obtained concentration was 10 times the concentration to be tested. 10 uL of siRNA was transferred to a 96-well plate. PHH cells were thawed and seeded to the 96-well plate, and the final cell density was 5.4×10^5 cells/well. The conjugate of the present invention was tested for 10 concentration points, and the highest concentration was 500 nM, with 4-fold dilution.
The cells were incubated for 48 h under the conditions of 37° C. and 5% CO2, and the state of the cells was observed using a microscope.
After the incubation was completed, the cells were lysed, all of RNA was extracted from the obtained lysate using RNeasy® 96 Kit (QIAGEN-74182), and underwent reverse transcription using FastKing RT Kit (With gDNase) (Tiangen-KR116-02) to obtain cDNA. AGT cDNA was detected by qPCR.
Background: Real-time PCR tracks product formation cycle by cycle.

“And” between values parts separate entries of the source, which are not always exact repeats. Equal values may be shown once. In the oligonucleotide strings, read from the 5' end, every base follows the letter of its sugar. An asterisk marks phosphorothioate; unmarked linkages are phosphodiester. Other units and linkages are bracketed, terminal groups are in braces. A string of capitals states the bases alone. {D01} = GalNAc ligand D01, attached to sense strand by a phosphodiester bond; m = 2'-O-methyl; f = 2'-fluoro

Usually EC50 stands for the midpoint of the concentration-response curve. Turning to “Conjugate 2: Double-stranded RNAi analog against AGT, D01 GalNAc ligand on sense strand; sense SEQ ID NO: 6, antisense SEQ ID NO: 2 containing Z (sense mA*mU*fCfCmAfCfAfAmUmGmAmGmAfGmUmAmCmA-{D01}; antisense CUCACAUGUACNCUCAUUGUGGAUGACGA; antisense: chemistry not given here; antisense strand modified, includes nucleotide analog Z, further chemistry not fully specified)”, the “plasma AGT protein level after administration/before administration, Average” value in the series on AGT protein (0.3 mg/kg single s.c., Day 22 vs Day -6) is given as 25.72%; with AGT protein (0.3 mg/kg single s.c., Day 71 vs Day -6), 51.76%; in the series with AGT protein (3 mg/kg single s.c., Day 22 vs Day -6) it was 2.47%; in the series with AGT protein (3 mg/kg single s.c., Day 71 vs Day -6), 9.88%. Also, the “plasma AGT protein level after administration/before administration” value with AGT protein (0.3 mg/kg single s.c., Day 22 vs Day -6, 0.3 mg/kg) was 28.47% and 22.96%; with AGT protein (0.3 mg/kg single s.c., Day 71 vs Day -6, 0.3 mg/kg) it was 55.17% and 48.35%; in the series on AGT protein (3 mg/kg single s.c., Day 22 vs Day -6, 3 mg/kg), 0.84% and 4.09%; in the series with AGT protein (3 mg/kg single s.c., Day 71 vs Day -6, 3 mg/kg), 10.84% and 8.92%. Moreover, the “Emax (remaining AGT mRNA)” value with AGT mRNA is given as 5%. In the series with AGT mRNA (AGT mRNA, read-out: Absolute EC50), the EC50 came to 0.197 nM. For the same substance, the “Log (concentration)” value in the series on AGT mRNA (log of the absolute EC50 in nM) is reported as −0.705.
